From US11819019B2, “Protein-free semen cryopreservation” (University of Saskatchewan, priority 2017, dated 2023)
Where no end group is shown, it is not given here. [ ]: non-standard residue; d: D form. Dmt = Cc1cc(O)cc(C)c1C[C@H](N)C(=O)O

Assays:
bull sperm [1] = experiment: Motility of fresh bull sperm after exposure to cell penetrating peptides, CASA (Example 8); type: cell-based; conditions: CPPs added at 37° C., FIG. 13
Method: Semen was collected from four bulls using electro-ejaculator. Semen was analyzed with Computer Assisted Semen Analysis (CASA) and washed (2×) with tris citric acid buffer (TB). The washed semen was diluted to 2.2 million/ml with TB. Semen (46 μl) was mixed with 4 μl of 100 μM solution of SS31 or mTP4. TB buffer alone was added in the control sample. […] After incubation, sperm motility was analyzed by CASA and then cells were treated with 2.5 μl propidium iodide (50 μg/ml) or 3 μl SYBR-14. Sperm were fixed with 10 μl of 10%-formaldehyde and another 500 μl PBS was added before flowcytometry analysis.

bull sperm [2] = experiment: Frozen-thaw longevity of bull sperm with cell penetrating peptides, CASA at 0, 2 and 4 hrs (Example 8); type: cell-based
Method: Semen was collected from four beef bulls using electro-ejaculator. Immediately after collection, 0.5 μM SS31 or mTP4 was added per ml semen. Concentration of up to 20 μM SS31 or mTP4 were also used. Semen transported to Cryobiology Lab where semen was analyzed with CASA. Semen was further diluted with egg yolk extender to 50 million per ml, packaged in straws and frozen following a freezing curve developed in our lab. Frozen semen with and without SS31 was thawed and CASA analysis was conducted at 0 (<15 min), 2 and 4 hrs. Structural characters, i.e. plasma membrane and acrosome, were also analyzed using FITC-PNA and PI assay with flow cytometer, as described in Examples 4 and 5.

equine sperm = conditions: Vidament et al, 2005; cited from earlier work

Compound	sperm motility and progressive motility as compared control (bull sperm [1])	Percent decline motility over time (bull sperm [2]; 4 hr post-thaw, vs control and mTP4 groups, FIG. 15)	post-thaw total sperm motility and progressive motility vs control (bull sperm [2]; semen frozen in egg yolk extender, 0, 2 and 4 hrs post-thaw, FIG. 14)	concentration in a preservation medium reported to be toxic to equine sperm (equine sperm)
DMT-D-MWWRRSRTNSLRYT ([Dmt][dM]WWRRSRTNSLRYT) [mTP4]	improved	–	–	–
D-Arg-DMT-Lys-Phe [SS31]	improved	lesser	better	–
OCC(O)CO [Glycerol, glycerol]	–	–	–	greater than 3.5%
